{"source": "patent US12527768B2", "about": "“Compositions comprising an anti-inflammatory drug and a dicer activator for use in the treatment of neuronal diseases” (NeuroSense Therapeutics Ltd., priority 2017, dated 2026)", "key": {"[1]": {"system": "chronic electrode-implanted rats", "conditions": "cited from earlier work; for EEG and behavior after intraventricular injection: relatively high dose"}, "[2]": {"system": "SOD1 G93R mutant zebrafish larvae", "test": "Toxicity analysis of larvae (morphology, cardiovascular system, behavior, mortality)", "type": "in vivo, zebrafish (Danio rerio)", "experimental": "(§1) Treatment protocol SOD1 G93R mutant or WT fish were collected and raised according to accepted and approved protocols, see Westerfield M. The Zebrafish Book: a Guide for the Laboratory Use of Zebrafish (Danio rerio) 2000, incorporated herein as reference. Larvae's morphology was observed (heart rate, overall morphology and behavior) at each day.\nToxicity analysis Fish were observed during the day of administration and the following days to observe toxicity. Acute toxicity was evaluated for apoptosis/necrosis and cardiovascular system abnormalities (heart rate, morphology, hemorrhage and edema). Head, eyes and overall morphological and behavioral toxicity were recorded according to accepted procedures^28."}, "[3]": {"system": "cytochrome P450 (CYP450) 2C9 and 3A4", "conditions": "cited from earlier work"}, "[4]": {"system": "SOD1 G93R mutant zebrafish larvae", "test": "Behavioral analysis (DanioVision): locomotor activity, distance moved", "type": "in vivo, zebrafish (Danio rerio)", "conditions": "for distance moved, elevation compared to non-treated SOD1 mutant, whole period of measurement: 6 dpf larvae; for distance moved compared to non-treated SOD1 mutant, whole experiment: 10 μM in swimming water; for effect on locomotor activity during all three experimental phases: spontaneous swimming, light/dark challenge, recovery from challenge", "text": "as §1\nTwo-hundred and forty (240) larvae were selected from the same laying batch to be introduced to three distinct treatments and a control (n=60 per each treatment). First and second treatments were conducted at 3 and 5 days post fertilization (dpf), respectively, when the blood brain barrier (BBB) is fully closed, and the motor neurons (MNs) and neuromuscular junctions (NMJs) are fully developed. The materials were administrated in the swimming water (DB). At day 6, larvae were taken to behavioral analysis using the automated DanioVision™ system. Following analysis, larvae were fixed and whole-mount immunohistochemistry procedure was conducted to be used for high resolution morphological analysis. Treatment protocol is detailed in FIG. 1.\nBehavioral analysis DanioVision™, an automated high-throughput tracking system of zebrafish larvae from Noldus Information Technology (Wageningen, the Netherlands), including control of light and dark conditions was used for the measurements and analysis of the results. Each single larvae was put in a single well, with the same volume of swimming water to ensure uniform background. Each animal was tested for its x,y position using dynamic subtraction 30 times per second. The distance each larvae moved in mm was calculated from the x,y position and averaged per time bin of 1 minute (average of 1800 measurements per each 1 minute). The behavioral profile was measured in 3 phases according to changes in environment that we applied, to introduce additional muscle and neurological stress. Spontaneous swimming, light/dark challenge (opto-kinetic response) and recovery from challenge behaviors were recorded and analyzed. All animals from the same treatment: wild type (WT), SOD1 mutant non-treated or treated were averaged per time bin of 1 minute to examine their reaction to additional stress, and then calculated for the whole period of time to get a relative number compared to the non-treated SOD1 mutant swimming behavior. Statistical analysis used was paired Student's t-tests (two-tailed) with two-sample assuming unequal variances. All P-values reported are two-tailed and the significance level was set at 0.05 (*), 0.01 to 0.001 (**) and below 0.001 (***)."}, "Pseudomonas aeruginosa": {"system": "Pseudomonas aeruginosa", "conditions": "cited from earlier work"}, "RNAi": {"system": "RNAi", "conditions": "cited from earlier work"}, "ALS mouse models": {"system": "ALS mouse models", "conditions": "enhancement of DICER activity; cited from earlier work"}, "ALS patients": {"system": "ALS patients", "conditions": "clinical trial; cited from earlier work"}, "[5]": {"system": "inhibitory interneurons of SOD1 mutants", "conditions": "1 μM; cited from earlier work"}, "[6]": {"conditions": "100 μM in swimming water, 0.1% DMSO"}, "[7]": {"conditions": "100 μM, recovery from challenge phase"}, "[8]": {"conditions": "100 μM, spontaneous swimming phase"}}, "note": "Values joined by “and” are separate entries in the source; they are usually repeats but may differ in a detail not shown here. Equal entries are not always repeated. “Also recorded” adds a separate entry of the source.", "data": [{"molecule": "CC(=O)Oc1ccccc1C(=O)O.NCCCCC(N)C(=O)O", "note": "(racemic) [aspirin DL-lysine]", "values": [{"measurement": "EEG and behavior after intraventricular injection", "setting": "[1]", "result": "spike and wave complex in EEG without showing remarkable behavioral changes"}]}, {"molecule": "Cc1ccc(-c2cc(C(F)(F)F)nn2-c2ccc(S(N)(=O)=O)cc2)cc1", "note": "[Celecoxib]", "values": [{"measurement": "toxicity at high concentration", "setting": "[2]; 30 μM, 0.3% DMSO, SOD1 mutants and WT", "result": "cardiovascular toxicity and death"}, {"measurement": "toxicity at lower concentrations", "setting": "[2]; below 10 μM (0.3% DMSO) / 5 μM (0.1% DMSO)", "result": "no toxicity was evident"}, {"measurement": "metabolism in vivo", "setting": "[3]", "result": "oxidized by cytochrome P450 (CYP450) 2C9 and 3A4 to the inactive metabolite hydroxycelecoxib"}, {"measurement": "distance moved, elevation compared to non-treated SOD1 mutant, whole period of measurement", "setting": "[4]; 1 μM in swimming water", "result": 6, "unit": "%"}, {"measurement": "locomotor effect of Celecoxib at 5 μM", "setting": "[4]; 5 μM, 0.1% DMSO background", "result": "subtle locomotor decline; also recorded: reduction in locomotor ability"}, {"measurement": "locomotor effect of Celecoxib at 10 μM", "setting": "[4]; 10 μM, 0.3% DMSO background", "result": "subtle locomotor decline; also recorded: Subtle locomotor reduction"}]}, {"molecule": "O=C(O)c1cn(C2CC2)c2cc(N3CCNCC3)c(F)cc2c1=O", "note": "[Ciprofloxacin]", "values": [{"measurement": "potency against Pseudomonas aeruginosa among quinolones", "setting": "Pseudomonas aeruginosa", "result": "most potent quinolone"}, {"measurement": "RNAi-enhancing activity", "setting": "RNAi", "result": "substantial RNAi-enhancing activity"}, {"measurement": "distance moved compared to non-treated SOD1 mutant, whole experiment", "setting": "[4]; 0.1% DMSO", "result": "did not significantly affect locomotor activity; also recorded: not changed"}, {"measurement": "effect on locomotor activity during all three experimental phases", "setting": "[4]; 10 μM", "result": "nearly no effect"}, {"measurement": "locomotor activity of Ciprofloxacin compared to Enoxacin treatment", "setting": "[4]; 100 μM each, spontaneous swimming and recovery from challenge", "result": "elevated locomotor activity compared to Enoxacin treatment"}, {"measurement": "distance moved, elevation compared to non-treated SOD1 mutant, whole period of measurement", "setting": "[4]; [6]", "result": "18% and 17.8%"}, {"measurement": "locomotor activity, increase vs non-treated SOD1 mutant, recovery from challenge", "setting": "[4]; [7]", "result": 33.5, "unit": "%"}, {"measurement": "locomotor activity, increase vs non-treated SOD1 mutant, spontaneous swimming", "setting": "[4]; [8]", "result": 26.2, "unit": "%"}, {"measurement": "effect on locomotor activity under dark conditions", "setting": "[4]; 1, 10, 50, 100, 200 and 500 μM", "result": "nearly no effect"}, {"measurement": "locomotor activity in the phase of recovery from stress, dose response", "setting": "[4]; 50, 100, 200 and 500 μM, second phase of light", "result": "dose dependent curve that eventually ended in a plateau"}, {"measurement": "effect on spontaneous swimming at high concentrations", "setting": "[4]; 200 and 500 μM, spontaneous swimming phase", "result": "did not cause elevation in spontaneous swimming"}, {"measurement": "most potent concentration in affecting locomotor activity", "setting": "[4]; tested 1-500 μM", "result": 100, "unit": "µM"}]}, {"molecule": "CCn1cc(C(=O)O)c(=O)c2cc(F)c(N3CCNCC3)nc21", "note": "[Enoxacin]", "values": [{"measurement": "epileptogenic activity, EEG", "setting": "[1]; intraventricular, 50 and 100 micrograms", "result": "potent epileptogenic activity"}, {"measurement": "drug induced effects in morphology or mortality", "setting": "[2]; Enoxacin 10 μM and 100 μM, 0.1% DMSO", "result": "no drug induced effects in morphology or mortality were observed"}, {"measurement": "effect in two independent ALS mouse models", "setting": "ALS mouse models", "result": "beneficial in vivo"}, {"measurement": "distance moved compared to non-treated SOD1 mutant, whole experiment", "setting": "[4]; 0.1% DMSO", "result": "not changed"}, {"measurement": "effect on locomotor activity during all three experimental phases", "setting": "[4]; 10 μM", "result": "nearly no effect"}, {"measurement": "distance moved, elevation compared to non-treated SOD1 mutant, whole period of measurement", "setting": "[4]; [6]", "result": 20, "unit": "%"}, {"measurement": "distance moved, elevation compared to non-treated SOD1 mutant, whole period of measurement", "setting": "[4]; 100 μM in swimming water, 0.1% DMSO, listed as enoxacin", "result": 19.9, "unit": "%"}, {"measurement": "locomotor activity, increase vs non-treated SOD1 mutant, light/dark challenge", "setting": "[4]; 100 μM, light/dark challenge phase", "result": 21, "unit": "%"}, {"measurement": "locomotor activity, increase vs non-treated SOD1 mutant, recovery from challenge", "setting": "[4]; [7]", "result": 17.6, "unit": "%"}, {"measurement": "locomotor activity, increase vs non-treated SOD1 mutant, spontaneous swimming", "setting": "[4]; [8]", "result": 20.1, "unit": "%"}]}, {"molecule": "CCOC(=O)Cc1ccc(-c2ccccc2)cc1", "note": "[Ferubinac ethyl]", "values": [{"measurement": "EEG and behavior after intraventricular injection", "setting": "[1]", "result": "spike and wave complex in EEG without showing remarkable behavioral changes"}]}, {"molecule": "Nc1nc2ccc(OC(F)(F)F)cc2s1", "note": "[Riluzole]", "values": [{"measurement": "effect on ALS disease progression", "setting": "ALS patients", "result": "modestly slowed ALS progression"}, {"measurement": "neuronal stress in inhibitory interneurons", "setting": "[5]", "result": "reduced"}, {"measurement": "distance moved, elevation compared to non-treated SOD1 mutant, whole period of measurement", "setting": "[4]; 1 μM in swimming water", "result": "36% and 36.8%"}, {"measurement": "locomotor activity, increase vs non-treated SOD1 mutant, light/dark challenge", "setting": "[4]; 1 μM, light/dark challenge phase (10-20 min)", "result": 32, "unit": "%"}, {"measurement": "locomotor activity, increase vs non-treated SOD1 mutant, recovery from challenge", "setting": "[4]; 1 μM, recovery from challenge phase (last 10 minutes)", "result": 39.7, "unit": "%"}, {"measurement": "locomotor activity, increase vs non-treated SOD1 mutant, spontaneous swimming", "setting": "[4]; 1 μM, spontaneous swimming phase (0-10 min)", "result": 38, "unit": "%"}]}]}
